Test results taken from patent US9988430B2, “Stable GLP-1 based GLP-1/glucagon receptor co-agonists” (Novo Nordisk A/S, priority 2014, dated 2018).
*1 amine or outer side, *2 acyl side, *3 side chain or, on linkers, in order; H or OH if unused. Where a SMILES comes first, the peptide text is derived from it. Bridges are numbered along the chain shown (N, C = ends). Roman numbers before positions name the chains, in order. [ ]: non-standard residue; d: D form. The star is where a group is joined. C18 diacid = O=C(O)CCCCCCCCCCCCCCCCC(=O)*; γGlu = O=C(O)[C@H](CCC(=O)[*:2])N[*:1]; Desaminohistidyl = O=C(CCc1c[nH]cn1)*; Ac4c = NC1(C(=O)O)CCC1; Aib = CC(C)(N)C(=O)O

Target: T1, human GLP-1 receptor (Homo sapiens, UniProt P43220)
T1 construct: expressed in transfected cells; host or cells: membranes of BHK cells, parent line BHKTS13, clone FCW467-12A
T1 sequence (P43220 24-463): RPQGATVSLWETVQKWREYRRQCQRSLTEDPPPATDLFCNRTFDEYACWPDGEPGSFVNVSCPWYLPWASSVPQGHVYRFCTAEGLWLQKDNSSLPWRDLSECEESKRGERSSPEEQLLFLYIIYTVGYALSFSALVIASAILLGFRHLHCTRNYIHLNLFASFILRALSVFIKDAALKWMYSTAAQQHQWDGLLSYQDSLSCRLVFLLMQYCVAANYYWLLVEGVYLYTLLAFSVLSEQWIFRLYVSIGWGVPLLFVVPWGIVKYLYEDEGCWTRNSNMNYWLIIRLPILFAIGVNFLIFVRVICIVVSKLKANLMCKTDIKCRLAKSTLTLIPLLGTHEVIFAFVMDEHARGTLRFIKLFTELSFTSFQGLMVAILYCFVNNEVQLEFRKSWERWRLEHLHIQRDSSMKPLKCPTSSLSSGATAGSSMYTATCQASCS
Experiment: Assay (II)(a): GLP-1 receptor binding, [125I]GLP-1 displacement, SPA on BHK membranes
Details: displacement of [125I]GLP-1, membranes with human GLP-1 receptor; read-out: IC50 GLP-1R
Method: Assay (II): GLP-1 and Glucagon Receptor Binding The purpose of this assay is to test the in vitro receptor binding activity of the GLP-1 derivatives of the invention. (a) GLP-1 Receptor Binding The GLP-1 receptor (GLP-1R) binding is a measure of the affinity of a derivative for the human GLP-1 receptor. The GLP-1 receptor binding of each derivatives were determined with competitive binding, displacing [^125I]GLP-1 bound to GLP-1 receptors expressed in cell membranes associated with wheat germ agglutinin (WGA) scintillation proximity assay (SPA) beads. Each derivative was added in a series of concentrations to isolated membranes comprising the human GLP-1 receptor and displacement of the labelled radioligand was monitored. The receptor binding was reported as the concentration at which half of the labelled ligand is displaced from the receptor, the IC^50 value. The following chemicals were used in the assay: MEM w/o phenol red (Gibco 11880-028), Pen/strep (Invitrogen 15140-122), G418 (Invitrogen 10131-027), 1 M Hepes (Gibco 15630), EDTA (Invitrogen 15575-038), PBS (Invitrogen 14190-094), fetal calf serum (Invitrogen 16140-071), EGTA, MgCl2 (Merck 1.05832.1000), Tween 20 (Amresco 0850C335), SPA particles (wheat germ agglutinin (WGA) SPA beads, Perkin Elmer RPNQ0001), [125I]-GLP-1]-(7-36)NH2 (produced in-house), OptiPlate™-96 (Perkin Elmer). Buffer 1 consisted of 20 mM Na-HEPES plus 10 mM EDTA and pH was adjusted to 7.4. Buffer 2 consisted of 20 mM Na-HEPES plus 0.1 mM EDTA and pH was adjusted to 7.4. Assay buffer consisted of 50 mM HEPES supplemented with 5 mM EGTA, 5 mM MgCl2, 0.005% Tween 20 and pH was adjusted to 7.4. A 0.02% albumin stock consisted of HSA dissolved at 0.02% (w/v) in assay buffer. The cells used in this assay (clone FCW467-12A) were BHK cells with BHKTS13 as a parent cell line. The cells express the human GLP-1 receptor. The cells were grown at 5% CO2 in DMEM, 10% fetal calf serum, 1% Pen/Strep (Penicillin/Streptomycin) and 1.0 mg/ml of the selection marker G418. To make a membrane preparation the cells were grown to approximately 80% confluence. The cells were washed twice in phosphate-buffered saline and harvested. The cells were pelleted using a brief centrifugation and the cell pellet was kept on ice. The cell pellet was homogenised with ULTRA-THURRAX dispersing instrument for 20-30 seconds in a suitable amount of buffer 1 (e.g., 10 ml). The homogenate was centrifuged for 15 minutes. The pellet was re-suspended (homogenised) in 10 ml buffer 2 and centrifuged. This step was repeated once more. The resulting pellet was re-suspended in buffer 2 and the protein concentration was determined. The membranes were aliquoted and stored at minus 80° C. • 1. For the receptor binding assay 50 μl of the assay buffer was added to each well of an assay plate. • 2. Test compounds were serially diluted to give the following concentrations: 8×10EE-7 M, 8×10EE-8 M, 8×10EE-9 M, 8×10EE-10 M, 8×10EE-11 M, 8×10EE-12 M and 8×10EE-13 M. Twenty-five μl were added to appropriate wells in the assay plate. • 3. Cell membrane aliquots were thawed and diluted to their working concentration. Fifty μl were added to each well in the assay plate. • 4. WGA SPA beads were suspended in assay buffer at 20 mg/ml. The suspension was diluted to 10 mg/ml in assay buffer just prior to addition to the assay plate. Fifty μl were added to each well in the assay plate. • 5. The incubation was started by adding 25 μl of 480 pM solution of [125I]-GLP-1]-(7-36)NH2 to each well of the assay plate. A 25 μl aliquot was reserved for measuring total counts/well. • 6. The assay plate was incubated for 2 h at 30° C. • 7. The assay plate was centrifuged for 10 min. • 8. The assay plate was read in a Perkin Elmer TopCount NXT instrument. Calculations The data from the TopCount instrument were transferred to GraphPad Prism software. The software averaged the values for the replicates and performed a non-linear regression. IC50 values were calculated by the software and reported in nM. […]

Row | IC50 [nM] | SMILES
1 | 3.2 | CC[C@H](C)[C@H](NC(=O)[C@H](Cc1ccccc1)NC(=O)[C@H](CCC(=O)O)NC(=O)[C@H](CCCNC(=N)N)NC(=O)[C@H](C)NC(=O)[C@H](C)NC(=O)[C@H](CCC(N)=O)NC(=O)[C@H](CCC(=O)O)NC(=O)[C@H](CCC(=O)O)NC(=O)[C@H](CC(C)C)NC(=O)[C@H](Cc1ccc(O)cc1)NC(=O)[C@H](CCCCN)NC(=O)[C@H](CO)NC(=O)[C@H](Cc1ccc(O)cc1)NC(=O)[C@H](CC(=O)O)NC(=O)[C@H](CO)NC(=O)[C@@H](NC(=O)[C@H](Cc1ccccc1)NC(=O)[C@@H](NC(=O)CNC(=O)[C@H](Cc1c[nH]cn1)NC(=O)C(C)(C)NC(=O)CCc1c[nH]cn1)[C@@H](C)O)[C@@H](C)O)C(=O)N[C@@H](C)C(=O)N[C@@H](Cc1c[nH]c2ccccc12)C(=O)N[C@@H](CC(C)C)C(=O)N[C@@H](CC(C)C)C(=O)N[C@@H](CCCCN)C(=O)NCC(=O)N[C@@H](CCCCNC(=O)CNC(=O)[C@H](CO)NC(=O)[C@H](CCC(=O)O)NC(=O)CNC(=O)[C@H](CO)NC(=O)CC[C@H](NC(=O)CC[C@H](NC(=O)CCCCCCCCCCCCCCCCC(=O)O)C(=O)O)C(=O)O)C(=O)NCC(=O)O [Example 14, N^ε36-[2-[[(2S)-2-[[(2S)-4-carboxy-2-[[2-[[(2S)-2-[[(4S)-4-carboxy-4-[[(4S)-4-carboxy-4-(17-carboxyheptadecanoylamino)butanoyl]amino]butanoyl]amino]-3-hydroxypropanoyl]amino]acetyl]amino]butanoyl]amino]-3-hydroxypropanoyl]amino]acetyl]-[Imp7,Aib8,His9,Tyr16,Lys18,Glu22,Arg26,Leu33,Lys36]-GLP-1-(7-37)-peptide] (I: Desaminohistidyl-[Aib]HGTFTSDYSKYLEEQAAREFIAWLLKGKG-OH / II: {C18 diacid-γGlu-γGlu}-SGESG; amide I:29-II:C)
2 | 0.1 | CC[C@H](C)[C@H](NC(=O)[C@H](Cc1ccccc1)NC(=O)[C@H](CCC(=O)O)NC(=O)[C@H](CCCNC(=N)N)NC(=O)[C@H](C)NC(=O)[C@H](C)NC(=O)[C@H](CCC(N)=O)NC(=O)[C@H](CCC(=O)O)NC(=O)[C@H](CCC(=O)O)NC(=O)[C@H](CC(C)C)NC(=O)[C@H](Cc1ccc(O)cc1)NC(=O)[C@H](CCCCN)NC(=O)[C@H](CO)NC(=O)[C@@H](NC(=O)[C@H](CC(=O)O)NC(=O)[C@H](CO)NC(=O)[C@@H](NC(=O)[C@H](Cc1ccccc1)NC(=O)[C@@H](NC(=O)CNC(=O)[C@H](Cc1c[nH]cn1)NC(=O)C1(NC(=O)CCc2c[nH]cn2)CCC1)[C@@H](C)O)[C@@H](C)O)C(C)C)C(=O)N[C@@H](C)C(=O)N[C@@H](Cc1c[nH]c2ccccc12)C(=O)N[C@@H](CC(C)C)C(=O)N[C@@H](CC(C)C)C(=O)N[C@@H](CCCCN)C(=O)N[C@@H](CCCCNC(=O)CNC(=O)[C@H](CO)NC(=O)[C@H](CCC(=O)O)NC(=O)CNC(=O)[C@H](CO)NC(=O)CC[C@H](NC(=O)CC[C@H](NC(=O)CCCCCCCCCCCCCCCCC(=O)O)C(=O)O)C(=O)O)C(N)=O [Example 2, N^ε35-[2-[[(2S)-2-[[(2S)-4-carboxy-2-[[2-[[(2S)-2-[[(4S)-4-carboxy-4-[[(4S)-4-carboxy-4-(17-carboxyheptadecanoylamino)butanoyl]amino]butanoyl]amino]-3-hydroxypropanoyl]amino]acetyl]amino]butanoyl]amino]-3-hydroxypropanoyl]amino]acetyl]-[Imp7,Acb8,His9,Lys18,Glu22,Arg26,Leu33,Lys35]-GLP-1-(7-35)-peptide amide] (I: Desaminohistidyl-[Ac4c]HGTFTSDVSKYLEEQAAREFIAWLLKK-NH2 / II: {C18 diacid-γGlu-γGlu}-SGESG; amide I:28-II:C)
